# According to ChEMBL document CHEMBL1201862, “PubChem BioAssay data set” (2004):
# The source made the active and inactive calls.
# What was measured:
# [1] = Counterscreen for activators of the function of SWI/SNF related, matrix associated, actin dependent regulator of chromatin, subfamily a, member 2 (SMARCA2, BRM): Luminescence-based cell-based high throughput dose response assay to identify non-selective compounds using the VP16 reporter assay.; format: functional
# [2] = HEK293T cell cytotoxicity, dose response, cytotoxicity control for HIV Vif inhibitor project, cherry-picks (AID 652208); format: functional, cell-based
# [3] = target: SWI/SNF-related matrix-associated actin-dependent regulator of chromatin subfamily A member 2 (Homo sapiens, UniProt P51531); test: Luminescence-based cell-based high throughput dose response assay to identify activators of the function of SWI/SNF related, matrix associated, actin dependent regulator of chromatin, subfamily a, member 2 (SMARCA2, BRM).; format: functional
# INS1 = test: beta cell apoptosis inhibitors, cytokine rescue, dose response, luminescence, retest (AID 449756); format: functional, cell-based; conditions: Rattus norvegicus;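 note: cell death triggered by IL-1 beta plus TNF-alpha plus IFN-gamma mixture; protective hits raise ATP signal compared with cytokine alone wells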
# [4] = target: Photoreceptor-specific nuclear receptor (Homo sapiens, UniProt Q9Y5X4); format: functional, cell-based;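 note: CHO-S cells with Gal4-NCOR and VP16-NR2E3 two-hybrid luciferase reporter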
# Phospholipase A2 = Phospholipase A2 (Homo sapiens, UniProt P04054); format: functional;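 note: confirmatory dose-response counterscreen on phospholipase A2, testing hits that came from an ultra-high-throughput screen for ATG4B inhibitors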
# [5] = target: T1, Heat shock factor protein 1 (Mus musculus, UniProt P38532); test: HSF1 potentiators in luciferase reporter cells, confirmation, cell-based, NIH3T3, luminescence, dose retest (AID 435004); format: functional;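 note: stress induced by proteasome inhibitor MG132 added 30 min after compound; luciferase reporter driven by HSF1 response element in NIH3T3 cells; actives raise luminescence as potentiators of the MG132 stress response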
# T1 sequence (P38532 whole entry): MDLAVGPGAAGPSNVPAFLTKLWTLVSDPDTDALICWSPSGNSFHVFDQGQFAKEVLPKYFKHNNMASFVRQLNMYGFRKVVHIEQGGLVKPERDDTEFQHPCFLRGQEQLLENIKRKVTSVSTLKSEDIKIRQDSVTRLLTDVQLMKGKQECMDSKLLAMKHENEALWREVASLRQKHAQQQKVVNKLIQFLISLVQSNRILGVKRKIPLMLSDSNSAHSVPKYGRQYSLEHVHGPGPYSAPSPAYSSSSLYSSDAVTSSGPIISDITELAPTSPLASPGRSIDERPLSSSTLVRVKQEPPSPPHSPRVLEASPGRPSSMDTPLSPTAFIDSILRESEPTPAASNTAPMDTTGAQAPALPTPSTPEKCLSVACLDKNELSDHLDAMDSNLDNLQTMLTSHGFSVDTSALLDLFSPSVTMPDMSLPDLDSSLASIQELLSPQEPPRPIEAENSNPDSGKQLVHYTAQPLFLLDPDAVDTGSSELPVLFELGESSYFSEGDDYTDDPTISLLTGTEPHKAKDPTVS
# Streptokinase A = target: T2, Streptokinase A (Streptococcus pyogenes serotype M1, UniProt P10520); test: S. pyogenes streptokinase expression inhibitors, potency, dose response, plasminogen activation absorbance, OD405 (AID 1914); format: functional, Streptococcus pyogenes M1 GAS;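 note: secreted streptokinase activity via plasminogen activation per viability signal from cell pellet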
# T2 sequence (P10520 whole entry): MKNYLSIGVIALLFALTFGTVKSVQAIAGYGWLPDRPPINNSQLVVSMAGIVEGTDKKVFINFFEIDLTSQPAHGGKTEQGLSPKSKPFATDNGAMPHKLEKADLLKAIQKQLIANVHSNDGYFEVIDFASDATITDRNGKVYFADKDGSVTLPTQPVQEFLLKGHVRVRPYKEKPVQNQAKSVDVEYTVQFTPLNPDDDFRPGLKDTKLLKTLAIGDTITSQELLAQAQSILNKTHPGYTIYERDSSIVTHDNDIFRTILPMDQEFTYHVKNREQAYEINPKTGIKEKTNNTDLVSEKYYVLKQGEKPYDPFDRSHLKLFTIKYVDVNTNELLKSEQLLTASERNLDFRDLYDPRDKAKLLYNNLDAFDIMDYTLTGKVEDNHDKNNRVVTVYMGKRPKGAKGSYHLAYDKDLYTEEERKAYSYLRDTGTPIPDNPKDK
# Streptococcus = test: Group A Streptococcus viability loss, dose response, counter-screen for streptokinase expression inhibitor project, luminescence, BacTiterGlo (AID 1915); format: functional, organism-based;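 note: potency for reduction of bacterial viability or growth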
# [6] = test system: Streptococcus sp. 'group A'; test: growth inhibition of control SK(-) GAS strain, dose response, counter-screen for streptokinase expression inhibitor project, luminescence, kanamycin, BacTiterGlo, confirmation (AID 1900); format: functional, organism-based
# Cysteine protease ATG4B = target: T3, Cysteine protease ATG4B (Homo sapiens, UniProt Q9Y4P1); format: functional;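 note: Fluorescence-based dose-response confirmation assay measuring inhibition of ATG4B activity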
# T3 sequence (Q9Y4P1 whole entry): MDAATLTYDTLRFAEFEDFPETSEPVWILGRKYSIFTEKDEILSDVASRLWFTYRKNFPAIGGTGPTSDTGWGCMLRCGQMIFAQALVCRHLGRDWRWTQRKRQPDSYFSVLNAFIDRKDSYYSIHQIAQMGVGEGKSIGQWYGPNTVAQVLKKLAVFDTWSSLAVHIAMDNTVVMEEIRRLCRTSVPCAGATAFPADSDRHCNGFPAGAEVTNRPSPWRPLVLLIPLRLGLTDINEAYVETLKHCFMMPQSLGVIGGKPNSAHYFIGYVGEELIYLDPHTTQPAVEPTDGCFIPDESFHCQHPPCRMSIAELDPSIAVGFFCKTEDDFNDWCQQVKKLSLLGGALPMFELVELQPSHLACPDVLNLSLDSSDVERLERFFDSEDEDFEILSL
# [7] = target: T4, Methionyl-tRNA synthetase, putative (Trypanosoma brucei brucei, UniProt Q38C91); format: functional, Trypanosoma brucei brucei strain 927/4 GUTat10.1
# [8] = Counterscreen for inhibitors of Trypanosoma brucei methionyl tRNA synthetase (MetRS): Luminescence-based cell-based high throughput dose response assay to identify compounds that are cytotoxic to Jurkat human T lymphocyte cells.; format: functional
# [9] = target: T4, Methionyl-tRNA synthetase, putative; format: functional, Trypanosoma brucei brucei strain 927/4 GUTat10.1; remark: listed apart in the source
# [10] = THP-1 cell cytotoxicity, dose response, cytotoxicity control for Vif-APOBEC3G degradation inhibitor project, THP-1 cells (AID 1117359); format: functional; conditions: Human immunodeficiency virus 1, THP-1
# [11] = target: Botulinum neurotoxin type F (Clostridium botulinum, UniProt P30996); test: High-throughput multiplex microsphere dose response for inhibitors of toxin protease, specifically Botulinum neurotoxin light chain F protease, compounds from Cherry Pick 02.; format: functional; conditions: read-out: EC50_MICROM
# [12] = inhibitors of Vif binding to APOBEC3G peptide, primary screen, biochemical, TR-FRET, GST-Vif 1-94, biotin-A3G peptide, dose response retest (AID 1117319); format: functional;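 note: TR-FRET signal of purified GST-Vif binding a biotinylated A3G peptide; inhibitors lower the FRET signal by blocking Vif and A3G binding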
# [13] = target: T5, Small ubiquitin-related modifier 1 (Homo sapiens, UniProt P63165); test: inhibitors of SUMO1 partner interactions, dose response, biochemical, FRET (AID 624383); format: functional; conditions: read-out: IC50_Mean
# [14] = target: Arf-GAP with SH3 domain, ANK repeat and PH domain-containing protein 1 (Homo sapiens, UniProt Q9ULH1); format: functional;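 note: biochemical fluorescence polarization dose–response screen measuring inhibition of ASAP1; ASAP1 GAP domain stimulating GTP hydrolysis by truncated human ARF1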
# [15] = target: ADP-ribosylation factor GTPase-activating protein 1 (Rattus norvegicus, UniProt Q62848); test: Fluorescence polarization-based biochemical high throughput dose response screening assay to identify inhibitors of ADP-ribosylation factor GTPase activating protein 1 (ARFGAP1).; format: functional
# [16] = target: T5, Small ubiquitin-related modifier 1; test: inhibitors of SUMO1 peptide binding, dose response, biochemical, fluorescence polarization, uHTS hits (AID 624382); format: functional; conditions: read-out: IC50_Mean
# Mu-type opioid receptor = Mu-type opioid receptor (Homo sapiens, UniProt P35372); test: Counterscreen for agonists of heterodimerization of the mu 1 (OPRM1) and delta 1 (OPRD1) opioid receptors: Luminescence-based cell-based high throughput dose response assay to identify agonists of OPRM1 homodimerization.; format: functional;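 note: U2OS cells expressing OPRM1 and beta-arrestin as split beta-galactosidase partners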
# [17] = target: Delta-type opioid receptor (Homo sapiens, UniProt P41143); test: Counterscreen for agonists of heterodimerization of the mu 1 (OPRM1) and delta 1 (OPRD1) opioid receptors: Luminescence-based cell-based high throughput dose response assay to identify agonists of OPRD1 homodimerization. [Related pubchem assays (depositor defined):AID504326, AID504355, AID504692, AID504904, AID504905]; format: functional
# [18] = target: 5-hydroxytryptamine receptor 5A (Homo sapiens, UniProt P47898); test: Counterscreen for agonists of OPRM1-OPRD1 heterodimerization: luminescence-based cell-based high throughput dose response assay to identify agonists of 5-hydroxytryptamine (serotonin) 5A receptor (HTR5A). [Related pubchem assays (depositor defined):AID504326, AID504355, AID504692, AID504904, AID504905]; format: functional
# [19] = target: T6, Short transient receptor potential channel 4 (Mus musculus, UniProt Q9QUQ5); test: mouse TRPC4 channel activators, dose response, cell-based, HEK293 TRPC4/mu-opioid, Fluo-4 calcium (AID 434937); format: functional
# T6 sequence (Q9QUQ5 whole entry): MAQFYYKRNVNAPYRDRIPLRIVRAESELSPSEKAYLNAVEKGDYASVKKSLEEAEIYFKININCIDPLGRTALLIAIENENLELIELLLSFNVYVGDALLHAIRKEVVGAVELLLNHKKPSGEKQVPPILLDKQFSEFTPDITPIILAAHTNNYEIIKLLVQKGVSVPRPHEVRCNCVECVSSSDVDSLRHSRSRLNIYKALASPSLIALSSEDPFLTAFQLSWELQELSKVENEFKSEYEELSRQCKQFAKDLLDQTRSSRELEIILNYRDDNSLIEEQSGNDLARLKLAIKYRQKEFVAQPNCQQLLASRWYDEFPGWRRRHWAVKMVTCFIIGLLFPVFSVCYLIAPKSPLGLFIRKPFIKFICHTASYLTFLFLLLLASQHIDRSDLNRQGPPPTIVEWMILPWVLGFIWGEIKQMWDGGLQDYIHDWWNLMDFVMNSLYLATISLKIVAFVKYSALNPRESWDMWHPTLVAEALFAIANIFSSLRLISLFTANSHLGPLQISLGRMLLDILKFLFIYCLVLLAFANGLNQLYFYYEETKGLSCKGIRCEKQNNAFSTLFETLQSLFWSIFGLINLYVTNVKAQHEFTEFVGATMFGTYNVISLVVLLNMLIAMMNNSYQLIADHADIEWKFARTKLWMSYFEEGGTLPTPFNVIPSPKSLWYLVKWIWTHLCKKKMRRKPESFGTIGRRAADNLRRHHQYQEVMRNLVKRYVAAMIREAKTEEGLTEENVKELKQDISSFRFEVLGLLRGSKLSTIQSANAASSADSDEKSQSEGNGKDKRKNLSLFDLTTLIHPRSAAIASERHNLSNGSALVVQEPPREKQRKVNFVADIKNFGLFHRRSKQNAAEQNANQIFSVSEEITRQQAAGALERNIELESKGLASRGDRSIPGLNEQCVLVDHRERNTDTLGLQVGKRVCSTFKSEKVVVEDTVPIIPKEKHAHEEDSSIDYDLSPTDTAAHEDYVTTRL
# [20] = Late-stage results from the probe development effort to identify activators of OPRM1 and OPRD1 heterodimer formation: luminescence-based cell-based dose response counterscreen assay to determine cytotoxicity of test compounds.; format: functional
# Vero = test: Vero cell toxicity, dose response, cytotoxicity control, plate reader, cherry-pick samples (AID 687020); format: functional, cell-based; conditions: Chlorocebus sabaeus
# H9c2 = test: cells; format: functional, cell-based; conditions: Rattus norvegicus, H9c2, Myocardium;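 note: confirmatory concentration-response retest of ultra-high-throughput screening hits for modulation of myocardial damage; cell death induced by hydrogen peroxide oxidative stress; compound pretreatment for 60 min then peroxide exposure for 2 h; potency is for protecting the cells against peroxide damage rather than for killing them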
# [21] = ZM109 Env clade C HIV-1 fusion inhibitors, dose response, HeLa effector, CEM target cells, luciferase, cherry-pick (AID 652058); format: functional, cell-based
# [22] = inhibitors of clade B AD8 Env fusion, dose response, cell-based, cherry-pick (AID 652062); format: functional;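 note: luciferase signal from cell-cell fusion driven by HIV-1 clade B AD8 Env; potency is for inhibitors of fusion seen as a drop in luminescence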
# [23] = inhibitors of HIV Env-driven cell fusion, dose response, cherry-pick (AID 652057); format: functional, cell-based
# [24] = CEM21 lymphoblast cell cytotoxicity, dose response, cytotoxicity control for viral fusion inhibitor project, CellTiter-Glo luminescence, cherry-picked (AID 652042); format: functional, cell-based;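 note: potency for signal decrease meaning cytotoxicity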
# [25] = off-target signal loss in HeLa-CEM21 co-culture – HeLa F-luc CTL cells, cherry-picked, counter-screen for HIV-1 Env fusion inhibitor project, dose response (AID 652040); format: functional, cell-based;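 note: potency for signal decrease marking cytotoxic or nonspecific inhibition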
# [26] = intracellular Trypanosoma cruzi inhibitors in host cells – cell-based, plate reader, cherry-pick samples, set 3, dose response (AID 651818); format: functional;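 note: compounds incubated with infected cells for about four days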
# [27] = NIH/3T3 fibroblast cytotoxicity, dose response, cytotoxicity control for T. cruzi growth inhibitor project, cell-based, cherry-pick samples, set 2 (AID 651817); format: functional; conditions: NIH3T3
# [28] = HEK293 cell viability, dose response, counter-screen for EBV LMP1 inhibitor project, dry powder, set 2 (AID 624374); format: functional
# T5 sequence (P63165 whole entry, the tested form may be a part): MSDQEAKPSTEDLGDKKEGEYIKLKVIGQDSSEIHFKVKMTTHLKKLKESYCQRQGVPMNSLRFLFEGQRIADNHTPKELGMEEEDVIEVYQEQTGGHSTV
# T4 sequence (Q38C91 whole entry): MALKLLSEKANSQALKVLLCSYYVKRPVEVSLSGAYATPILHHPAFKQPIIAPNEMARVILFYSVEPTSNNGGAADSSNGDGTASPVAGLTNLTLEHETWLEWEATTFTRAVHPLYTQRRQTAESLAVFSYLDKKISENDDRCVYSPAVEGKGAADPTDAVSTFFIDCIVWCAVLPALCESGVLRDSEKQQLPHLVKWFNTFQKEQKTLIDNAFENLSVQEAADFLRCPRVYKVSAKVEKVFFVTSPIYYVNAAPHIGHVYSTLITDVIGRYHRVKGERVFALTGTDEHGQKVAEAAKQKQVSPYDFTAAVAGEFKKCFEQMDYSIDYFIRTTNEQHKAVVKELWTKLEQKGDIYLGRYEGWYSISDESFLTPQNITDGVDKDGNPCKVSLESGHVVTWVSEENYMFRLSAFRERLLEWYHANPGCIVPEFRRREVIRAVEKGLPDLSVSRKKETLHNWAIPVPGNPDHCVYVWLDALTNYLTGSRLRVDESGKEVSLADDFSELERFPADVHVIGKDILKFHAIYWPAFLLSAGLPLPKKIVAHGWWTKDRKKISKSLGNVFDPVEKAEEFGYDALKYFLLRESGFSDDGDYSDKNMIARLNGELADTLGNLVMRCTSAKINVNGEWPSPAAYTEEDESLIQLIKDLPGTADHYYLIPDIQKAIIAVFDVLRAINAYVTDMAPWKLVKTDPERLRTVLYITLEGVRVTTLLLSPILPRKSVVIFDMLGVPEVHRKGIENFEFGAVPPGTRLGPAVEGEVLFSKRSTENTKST
# Sequence of ADP-ribosylation factor GTPase-activating protein 1 (Q62848 whole entry): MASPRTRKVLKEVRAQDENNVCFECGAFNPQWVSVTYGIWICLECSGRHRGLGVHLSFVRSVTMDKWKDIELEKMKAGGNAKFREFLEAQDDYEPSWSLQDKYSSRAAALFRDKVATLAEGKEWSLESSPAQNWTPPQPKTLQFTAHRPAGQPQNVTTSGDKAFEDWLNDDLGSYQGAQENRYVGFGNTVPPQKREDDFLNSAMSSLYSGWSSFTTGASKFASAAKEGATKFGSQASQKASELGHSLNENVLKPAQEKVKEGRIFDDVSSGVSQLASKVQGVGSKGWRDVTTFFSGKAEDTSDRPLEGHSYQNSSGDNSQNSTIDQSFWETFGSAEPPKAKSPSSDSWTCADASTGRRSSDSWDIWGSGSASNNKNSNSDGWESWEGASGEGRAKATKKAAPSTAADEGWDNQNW
# Sequence of 5-hydroxytryptamine receptor 5A (P47898 whole entry): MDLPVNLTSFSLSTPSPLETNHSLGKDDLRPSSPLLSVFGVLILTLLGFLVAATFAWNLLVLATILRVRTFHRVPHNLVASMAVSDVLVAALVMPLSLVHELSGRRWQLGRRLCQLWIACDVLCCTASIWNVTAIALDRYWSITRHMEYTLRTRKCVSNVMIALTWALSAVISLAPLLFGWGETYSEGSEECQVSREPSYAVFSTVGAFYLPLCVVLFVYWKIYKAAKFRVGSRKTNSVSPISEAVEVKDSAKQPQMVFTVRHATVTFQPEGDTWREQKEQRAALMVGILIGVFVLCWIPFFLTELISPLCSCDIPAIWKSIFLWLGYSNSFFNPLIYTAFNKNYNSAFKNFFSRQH
# Sequence of Arf-GAP with SH3 domain, ANK repeat and PH domain-containing protein 1 (Q9ULH1 whole entry, the tested form may be a part): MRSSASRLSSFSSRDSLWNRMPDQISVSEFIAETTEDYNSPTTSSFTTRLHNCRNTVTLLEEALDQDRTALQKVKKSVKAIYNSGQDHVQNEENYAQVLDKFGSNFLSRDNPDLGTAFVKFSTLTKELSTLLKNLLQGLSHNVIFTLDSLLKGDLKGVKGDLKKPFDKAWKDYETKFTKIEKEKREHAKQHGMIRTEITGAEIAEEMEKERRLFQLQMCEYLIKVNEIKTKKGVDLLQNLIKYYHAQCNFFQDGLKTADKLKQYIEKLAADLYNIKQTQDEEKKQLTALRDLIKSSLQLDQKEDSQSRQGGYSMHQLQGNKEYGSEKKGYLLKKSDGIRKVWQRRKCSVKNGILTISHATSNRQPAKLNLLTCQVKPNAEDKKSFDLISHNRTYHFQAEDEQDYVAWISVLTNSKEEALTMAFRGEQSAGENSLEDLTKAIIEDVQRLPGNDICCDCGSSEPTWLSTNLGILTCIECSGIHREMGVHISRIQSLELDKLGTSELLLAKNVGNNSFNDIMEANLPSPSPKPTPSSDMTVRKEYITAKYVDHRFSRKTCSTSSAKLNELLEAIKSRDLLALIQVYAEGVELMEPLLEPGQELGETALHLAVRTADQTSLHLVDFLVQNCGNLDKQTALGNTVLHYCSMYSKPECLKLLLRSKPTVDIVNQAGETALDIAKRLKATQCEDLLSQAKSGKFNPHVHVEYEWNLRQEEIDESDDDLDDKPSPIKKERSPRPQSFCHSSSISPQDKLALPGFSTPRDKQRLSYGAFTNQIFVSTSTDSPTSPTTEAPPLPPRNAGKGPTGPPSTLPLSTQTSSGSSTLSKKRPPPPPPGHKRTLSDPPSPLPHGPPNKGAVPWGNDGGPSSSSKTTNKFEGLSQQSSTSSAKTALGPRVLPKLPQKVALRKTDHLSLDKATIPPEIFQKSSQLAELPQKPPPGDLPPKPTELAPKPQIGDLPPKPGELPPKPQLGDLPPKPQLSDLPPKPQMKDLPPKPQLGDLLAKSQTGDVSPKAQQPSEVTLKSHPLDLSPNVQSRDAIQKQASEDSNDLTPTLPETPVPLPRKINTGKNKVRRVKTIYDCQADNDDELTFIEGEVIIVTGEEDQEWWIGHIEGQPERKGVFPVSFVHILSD
# Sequence of Delta-type opioid receptor (P41143 whole entry): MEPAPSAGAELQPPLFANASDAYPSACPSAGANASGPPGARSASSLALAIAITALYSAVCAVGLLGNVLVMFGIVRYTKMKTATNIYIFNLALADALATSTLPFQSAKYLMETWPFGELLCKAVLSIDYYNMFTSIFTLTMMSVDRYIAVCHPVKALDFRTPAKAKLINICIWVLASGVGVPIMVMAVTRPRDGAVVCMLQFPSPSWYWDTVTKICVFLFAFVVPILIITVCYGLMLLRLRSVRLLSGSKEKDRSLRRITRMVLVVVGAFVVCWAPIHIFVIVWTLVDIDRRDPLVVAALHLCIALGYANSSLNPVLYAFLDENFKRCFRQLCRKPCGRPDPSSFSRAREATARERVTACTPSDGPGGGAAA
# Sequence of SWI/SNF-related matrix-associated actin-dependent regulator of chromatin subfamily A member 2 (P51531 whole entry): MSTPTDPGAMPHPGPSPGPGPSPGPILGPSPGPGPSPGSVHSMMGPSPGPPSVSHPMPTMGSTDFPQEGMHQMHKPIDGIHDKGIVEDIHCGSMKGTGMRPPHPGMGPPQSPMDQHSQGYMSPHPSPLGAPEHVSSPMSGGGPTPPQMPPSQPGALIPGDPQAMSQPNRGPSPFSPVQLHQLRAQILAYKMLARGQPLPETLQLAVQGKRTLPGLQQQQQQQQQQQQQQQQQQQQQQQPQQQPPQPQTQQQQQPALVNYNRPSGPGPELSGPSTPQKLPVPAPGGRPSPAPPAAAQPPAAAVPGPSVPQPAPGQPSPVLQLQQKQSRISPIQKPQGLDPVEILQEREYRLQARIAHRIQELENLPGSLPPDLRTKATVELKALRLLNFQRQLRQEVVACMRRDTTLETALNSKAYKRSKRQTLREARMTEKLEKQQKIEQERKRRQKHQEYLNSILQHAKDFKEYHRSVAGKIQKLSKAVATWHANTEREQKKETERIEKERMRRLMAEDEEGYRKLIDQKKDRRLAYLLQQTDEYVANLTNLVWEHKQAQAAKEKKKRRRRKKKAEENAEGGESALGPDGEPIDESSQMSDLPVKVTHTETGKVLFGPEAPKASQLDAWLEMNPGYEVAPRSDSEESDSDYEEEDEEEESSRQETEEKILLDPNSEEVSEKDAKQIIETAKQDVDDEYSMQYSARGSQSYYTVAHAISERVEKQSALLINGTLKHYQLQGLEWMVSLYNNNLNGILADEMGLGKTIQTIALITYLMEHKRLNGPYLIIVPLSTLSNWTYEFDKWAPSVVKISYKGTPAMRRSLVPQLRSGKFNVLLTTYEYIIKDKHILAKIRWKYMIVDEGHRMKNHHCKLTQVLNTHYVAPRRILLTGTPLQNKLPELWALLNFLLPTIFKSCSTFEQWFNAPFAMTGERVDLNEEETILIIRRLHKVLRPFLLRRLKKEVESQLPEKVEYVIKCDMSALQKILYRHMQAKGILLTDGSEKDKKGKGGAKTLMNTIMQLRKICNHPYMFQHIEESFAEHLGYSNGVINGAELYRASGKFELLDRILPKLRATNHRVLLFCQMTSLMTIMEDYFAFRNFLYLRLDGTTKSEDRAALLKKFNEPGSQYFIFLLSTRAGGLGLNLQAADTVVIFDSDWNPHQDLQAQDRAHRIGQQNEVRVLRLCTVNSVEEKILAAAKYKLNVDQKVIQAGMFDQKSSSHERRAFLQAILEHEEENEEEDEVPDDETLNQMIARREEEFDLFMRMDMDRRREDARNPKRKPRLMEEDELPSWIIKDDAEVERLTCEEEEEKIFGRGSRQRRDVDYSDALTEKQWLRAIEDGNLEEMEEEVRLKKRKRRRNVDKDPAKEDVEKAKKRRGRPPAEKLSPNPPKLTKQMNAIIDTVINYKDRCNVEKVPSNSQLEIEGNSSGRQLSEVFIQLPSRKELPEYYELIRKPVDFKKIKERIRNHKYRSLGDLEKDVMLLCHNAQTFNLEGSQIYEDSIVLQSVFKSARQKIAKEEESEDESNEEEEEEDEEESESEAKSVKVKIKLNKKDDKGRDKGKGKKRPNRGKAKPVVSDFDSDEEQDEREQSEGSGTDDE
# Sequence of Phospholipase A2 (P04054 whole entry): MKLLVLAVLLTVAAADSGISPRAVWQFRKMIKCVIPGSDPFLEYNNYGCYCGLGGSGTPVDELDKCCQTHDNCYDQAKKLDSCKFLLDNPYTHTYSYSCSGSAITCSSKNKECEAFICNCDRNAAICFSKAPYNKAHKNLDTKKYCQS
smiles,measurement,setting,value
Cc1cnc(NC(=O)CN2CCN(c3ccccn3)CC2)s1,EC50,[1],> 91.2 µM (inactive)
same,AC50,[2],> 52 µM (inactive)
same,EC50,[3],> 91.2 µM (inactive)
same,AC50,INS1,6.06 µM (active)
same,IC50,[4],1.17 µM (active)
S=C(NCCSCc1ccc(Cl)c(Cl)c1)Nc1ccccc1,IC50,Phospholipase A2,3.24 µM (active)
same,EC50,[5],> 260 µM (inactive)
same,EC50,Streptokinase A,14.4 µM (active)
same,EC50,Streptococcus,> 150 µM (not active)
same,EC50,[6],11.2 µM (active)
same,IC50,Cysteine protease ATG4B,6.67 µM (active)
same,IC50,[7],11.1 µM (inactive)
same,IC50,[8],47.9 µM (inactive)
same,IC50,[9],11.6 µM (inactive)
Cc1cccc2c1NC1(CCCC1)CC2C (stereo unspecified),CC50,[10],24.6 µM (active)
same,EC50,[11],> 20 µM (inactive)
same,IC50,[12],> 100 µM (active)
CC(=O)Nc1ccc(C(=O)Nc2nc(-c3cccnc3)cs2)cc1,IC50,[13],12.1 µM (active)
same,IC50,[14],31.1 µM (inactive)
same,IC50,[15],36.6 µM (inactive)
same,IC50,[16],> 66.6 µM (inactive)
CCOC(=O)C1(CCc2ccccc2)CCN(Cc2ccc(NC(C)=O)cc2)CC1,EC50,Mu-type opioid receptor,24.3 µM (inactive)
same,EC50,[17],4.5 µM (active)
same,EC50,[18],> 92.5 µM (inactive)
same,EC50,[19],0.0267 µM (active)
same,CC50,[20],> 10 µM (inactive)
COc1ccc(N(CC(=O)NCCSc2ccccc2)S(=O)(=O)c2ccccc2)c(OC)c1,AC50,Vero,38.4 µM (active)
same,IC50,H9c2,10.8 µM (active)
Cc1cc(C)nc(Nc2nc(C(N)CCc3ccccc3)cs2)n1 (stereo unspecified),AC50,[21],3.65 µM (active)
same,AC50,[22],18.2 µM (active)
same,AC50,[23],4.75 µM (active)
same,AC50,[24],40.1 µM (active)
same,AC50,[25],6.75 µM (active)
C[C@@H]1CN([C@@H](C)CO)C(=O)c2cccc(NC(=O)c3ccncc3)c2O[C@H]1CN(C)Cc1ccc(Cl)c(Cl)c1,AC50,[26],0.08 µM (active)
same,AC50,[27],16.6 µM (active)
CS(=O)(=O)Nc1ccc2c(c1)[C@@H]1C[C@H](CC(=O)NCC3CC3)O[C@H](CO)[C@@H]1O2,AbsAC35,[28],85.99 µM
